Columns and labels:
[1] = tested on: Her2 expression in SKBr3 cells; experiment: phenotypic SKBr3/HER2 cell test (Her2 expression at the cell surface, flow cytometry); assay type: cell-based; settings: Homo sapiens, SK-BR-3, incubation for 24 h, anti-Her2 antibody coupled to PE, FACS
Procedure: The cellular activity of the compounds can in particular be evaluated by means of the phenotypic “SKBr3/HER2” cell test described below:
The SKBr3 […] adenocarcinoma cells, overexpressing the Her2 tyrosine kinase receptor, originate from the ATCC (HTB-30) and are cultured in McCoy's 5A medium supplemented with 10% FBS and 1% L-glutamine.
The cells are seeded in 12-well plates at a proportion of 125 000 cells per well in 1 ml of complete medium. The following day, the products are added at varying concentrations. After incubation for 24 h, the cells are trypsinized, washed with PBS and incubated with 100 ng of anti-Her2 antibody coupled to PE (phycoerythrin) (BD 340552) for 30 minutes at 4° C. in the dark. The fluorescence due to the expression of the Her2 receptor at the surface of the cells is then read using a FACS Calibur flow cytometer (Becton-Dickinson). The percentage inhibition of Her2 expression as a function of the concentrations of product tested is fitted by the nonlinear regression technique (XLfit, equation 205) in order to measure the IC50 for each product.

Hsp82 = Hsp82 (Saccharomyces cerevisiae, UniProt P02829); experiment: Hsp82/ATPase test (PK/LDH coupled spectrophotometric method; malachite green method also described); assay type: biochemical; settings: 1 μM Hsp82, 250 μM ATP, 37° C., absorbance at 340 nm
Sequence of Hsp82 (P02829 whole entry): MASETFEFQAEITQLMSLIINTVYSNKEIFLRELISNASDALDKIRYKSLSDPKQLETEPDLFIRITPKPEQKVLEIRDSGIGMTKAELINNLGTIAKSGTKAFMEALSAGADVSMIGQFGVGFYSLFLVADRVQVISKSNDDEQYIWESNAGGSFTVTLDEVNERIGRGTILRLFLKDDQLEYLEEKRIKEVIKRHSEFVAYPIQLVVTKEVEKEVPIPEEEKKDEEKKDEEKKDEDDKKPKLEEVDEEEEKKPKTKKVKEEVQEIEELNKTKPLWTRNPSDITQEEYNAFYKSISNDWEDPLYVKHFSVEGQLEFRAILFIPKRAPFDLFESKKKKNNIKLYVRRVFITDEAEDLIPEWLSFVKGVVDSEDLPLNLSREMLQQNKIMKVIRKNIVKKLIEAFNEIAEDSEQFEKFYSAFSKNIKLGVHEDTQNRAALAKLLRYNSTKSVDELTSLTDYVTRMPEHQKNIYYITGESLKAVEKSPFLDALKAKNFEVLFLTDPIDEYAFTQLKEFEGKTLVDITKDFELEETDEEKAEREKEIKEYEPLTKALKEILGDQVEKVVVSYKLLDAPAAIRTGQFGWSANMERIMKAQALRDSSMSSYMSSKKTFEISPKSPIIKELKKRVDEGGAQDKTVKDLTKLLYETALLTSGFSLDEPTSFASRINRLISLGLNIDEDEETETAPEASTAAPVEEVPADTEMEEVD
Procedure: The biochemical activity of the compounds can in particular be evaluated by means of the “Hsp82/ATPase” test described below:
The inorganic phosphate released during the hydrolysis of ATP by the ATPase activity of Hsp82 is quantified by the malachite green method. In the presence of this reagent, formation of the inorganic phosphate-molybdate-malachite green complex, which absorbs at a wavelength of 620 nm, occurs.
The products to be evaluated are incubated in a reaction volume of 30 μl, in the presence of 1 μM Hsp82 and of 250 μM of substrate (ATP) in a buffer composed of 50 mM Hepes-NaOH (pH 7.5), 1 mM DTT, 5 mM MgCl2 and 50 mM KCl at 37° C. for 60 min. In parallel, an inorganic phosphate range of between 1 and 40 μM is made up in the same buffer. […] The inorganic phosphate concentration of each sample is then calculated from the standard curve. The ATPase activity of Hsp82 is expressed as concentration of inorganic phosphate produced in 60 minutes. The effect of the various products tested is expressed as percentage inhibition of the ATPase activity.
The formation of ADP due to the ATPase activity of Hsp82 was used to develop another method for evaluating the enzyme activity of this enzyme by application of an enzymatic coupling system involving pyruvate kinase (PK) and lactate dehydrogenase (LDH). In this kinetic-type spectrophotometric method, PK catalyses the formation of ATP and of pyruvate from phosphoenol pyruvate (PEP) and the ADP produced by Hsp82. The pyruvate formed, which is a substrate for LDH, is subsequently converted to lactate in the presence of NADH. In this case, the decrease in the NADH concentration, measured through the decrease in absorbance at the wavelength of 340 nm, is proportional to the concentration of ADP produced by Hsp82.
The products tested are incubated in a reaction volume of 100 μl of buffer composed of 100 mM Hepes-NaOH (pH 7.5), 5 mM MgCl2, 1 mM DTT, 150 mM KCl, 0.3 mM NADH, 2.5 mM PEP and 250 μM ATP. This mixture is preincubated at 37° C. for 30 minutes before the addition of 3.77 units of LDH and 3.77 units of PK. The reaction is initiated by addition of the product to be evaluated, in varying concentrations, and of Hsp82, at the concentration of 1 μM. The enzymatic activity of Hsp82 is then measured continuously, in a microplate reader, at 37° C., at the wavelength of 340 nm. The initial rate of the reaction is obtained by measuring the slope of the tangent to the origin of the curve recorded. The enzymatic activity is expressed in μM of ADP formed per minute. The effect of the various products tested is expressed as 50% inhibitory concentration (1050) with respect to the ATPase activity, according to the codification below: […]

Row | Structure (SMILES) | IC50 [1] | melting point | IC50 (Hsp82)
1 | Cc1nn(-c2ccc(C(N)=O)c(NC3CC4CCC3O4)c2)c2cccc(-c3cnc4ccccc4c3)c12 (stereo not drawn) [Example 14, 4-(3-methyl-4-quinolin-3-ylindazol-1-yl)-2-[exo-(7-oxabicyclo[2.2.1]hept-2-yl)amino]benzamide] | < 1000 nM | 170 to 172 °C | 
2 | Cc1nn(-c2cnc(C(N)=O)c(NCCc3ccccn3)c2)c2cccc(-c3cnc4ccccc4c3)c12 [Example 18, 5-[3-methyl-4-quinolin-3-ylindazol-1-yl]-3-[2-pyridin-2-ylethylamino]pyridine-2-carboxamide] | 1000 to 10000 nM |  | < 1000 nM

From patent publication US20120010241A1, “HSP90 INHIBITING INDAZOLE DERIVATIVES, COMPOSITIONS CONTAINING SAME AND USE THEREOF” (SANOFI, priority 2009, published 2012)
